Test system: patients ≥2 and <25 years with brain cancer
Assay: Phase I/II trial of single agent mirdametinib in children, adolescents and young adults with brain cancer
Assay type: in vivo, human
Description: A multi-arm phase I/II trial of mirdametinib is to be conducted in patients ≥2 and <25 years with brain cancer. Phase I requires participants have no prior exposure to MEK inhibitors and recurrent/progressive disease with biopsy-proven evidence of MAPK pathway activation. Three escalating dose levels (2 mg/m^2/dose BID, 2.5 mg/m^2/dose BID and 3 mg/m^2/dose BID) are planned using a rolling 6 design. The median age enrolled in the study is 10 years old (3-21).

[1] = patients with brain cancer, 2-3 mg/m^2/dose BID

## O=C(NOC[C@H](O)CO)c1ccc(F)c(F)c1Nc1ccc(I)cc1F (single isomer, unassigned) [mirdametinib]
All three dose levels (2, 2.5 and 3 mg/m^2/dose BID), continuous dosing, patients with brain cancer
  dose-limiting toxicities: No dose-limiting toxicities
Dosed continuously in patients with brain cancer
  tolerability: well-tolerated
[1]
  MEK related retinopathy or cardiopathy: No MEK related retinopathy or cardiopathy is observed
  disease progressions: No disease progressions

Source: patent US12220390B2, “Mirdametinib treatment” (SpringWorks Therapeutics, Inc., priority 2022, dated 2025)
